Drawing on a melting point compilation (Tetko et al.; mined from patent text by program, amines drawn as free bases though some values may be those of a salt), this text covers melting point for 63 compounds.

`C[C@H](CS(C)(=O)=O)NC(=O)c1c[nH]c2ncc(-c3nn(C)c4cc(Cl)ccc34)nc12` came in with a melting point of 287 to 290 °C.
Under `COC(=O)c1cc(I)c(C(F)(F)F)cc1N` stands 101 to 103 °C; under `CN1CC=CC(c2cc3ccccc3o2)C1` (stereo not drawn), 63 °C.
Under `NC=C(C=O)c1cccc(C(F)(F)F)c1` stands 63 to 70 °C; under `CCCCc1nc2ccc(O)cc2c(=O)n1Cc1ccc(-c2ccccc2-c2nnnn2COC)cc1`, 157 to 159 °C.
For the compound `CCc1cccc(C)c1S(=O)(=O)c1nc[nH]n1`, the melting point lay within 180 to 181 °C.
Next, `CC(C)CC(CC1CCCCC1)Cn1ccnc1` (stereo not drawn): 119 to 120 °C.
Under `CC(=O)N1c2ccccc2OP1c1ccccc1` (stereo not drawn) stands 73 to 75 °C; under `CC(C)(C)OC(=O)NC(C)(COCc1ccccc1)C(=O)O` (stereo not drawn), 112 to 114 °C.
Next, `O=C1c2ccccc2C(=O)N1CCCCCSc1ccccc1`: 87 to 88 °C; `CCCSc1sc(C(=O)OCC)c2c1-c1nn(C)cc1CC2`: 90 to 91 °C; `CCOC(=O)C1(C)C(=O)Nc2cc(NC(=O)c3ccncc3)c([N+](=O)[O-])cc21` (stereo not drawn): 217 to 219 °C.
On to `CC(C)c1ccc2c(c1)C(=O)c1ccccc1C2=O`, for which the melting point lay in the range of 53 to 54 °C.
In turn, `COc1cc(CN2CCN(C(=O)C3=Cc4ccc(OC(=O)c5ccccc5)cc4CC3)CC2)cc(OC)c1OC` yielded a melting point of 117 to 119 °C.
Under `CC(C)(C)c1ccc(Sc2cccc(C=C3SC(=S)NC3=O)c2)cc1` stands 188 to 190 °C.
`CC(C)(C)c1cc(SCCC(=O)N2CCN(Cc3ccccc3)CC2)cc(C(C)(C)C)c1O` registered a melting point of 92.5 to 95 °C.
Under `CCCCOc1ccc(S(=O)(=O)N2CCC(NCc3ccccc3)C2)cc1` (stereo not drawn) stands 99 to 100 °C; under `CNC(=O)c1sc(C(C)(C)C)cc1NC(=O)Nc1ccc(F)cc1`, 203 to 204 °C.
Next, `O=S1(=O)C=CC=CC=N1`: 144 to 146 °C.
Regarding `COc1ccc(C(=O)Cc2c(Cl)cncc2Cl)c2c(CC(=O)OCc3ccccc3[N+](=O)[O-])coc12`, the melting point lay within 200 to 201 °C.
`COC(=O)c1ccc(Cl)cc1NC(=O)Cc1cccc(C#Cc2ccccc2)c1` had a melting point of 100 to 101 °C.
Under `CCn1ncc2c3[nH]cnc(=O)c3cnc21` stands 320 to 322 °C; under `COc1ccc(C(=O)c2c(N)sc3c2CCN(C(=O)c2ccc(Cl)cc2)C3)cc1OC`, 138 to 140 °C; under `COc1cc(S(=O)(=O)c2ccncc2)ccc1NC(=O)C(C)(O)C(F)(F)F` (stereo not drawn), 220 to 222 °C.
Next, `CSC(=NS(=O)(=O)c1cccnc1)SC`: 115 to 118 °C; `CCOC(=O)c1cccc(-n2cc(-c3ccccc3)c3c(N)ncnc32)c1`: 176 to 177 °C; `CCCCc1c(C=O)cc(OC)c2ccccc12`: 51 to 52 °C.
Take `O=C1CCc2cc(-n3ccnc3)ccc21`: the melting point is 148 to 150 °C.
With `CC(C)Oc1cc([N+](=O)[O-])ccc1-n1cccc1`, the melting point is 59 to 61 °C.
Under `O=C(c1ccccc1F)c1cc(Cl)ccc1C(=O)C(Br)CN1C(=O)c2ccccc2C1=O` (stereo not drawn) stands 125 to 128 °C; under `O=c1[nH]c2ccccc2c(=O)n1C1CCN(Cc2ccccc2)CC1`, 223 °C.
Under `O=C(O)CN1C(=O)C(=Cc2ccc(CO)o2)SC1=S` stands 206 to 209 °C; under `O=Cc1c(Cl)n(CC2CC2)c2ccccc12`, 108 to 109 °C.
Under `CCOC(=O)C1=C(C)NC(N)=C(C(=O)OCC)C1c1ccccc1OC` (stereo not drawn) stands 170 °C.
As to `Cc1[nH]c(Br)c(C)c1-c1ccnc(Nc2ccc(F)cc2)n1`, the melting point fell in the range of 181 to 183 °C.
Next, `N#Cc1cc(-c2ccncc2)sc1-c1ccncc1`: 205 to 207 °C.
`COc1ccc2c(Cc3ccc(OC4CCCCC4N(C)C)cc3)c(-c3ccc(OCCN4CCCC4)cc3)sc2c1` (stereo not drawn) had a melting point of 58 to 61 °C.
As to `CCOC(=O)C1=CC2(CCC1S(=O)(=O)Nc1ccc(F)cc1Cl)O[C@H]([C@H](O)CO)[C@@H]([C@H](O)CO)O2` (stereo partly drawn), the melting point was in the range of 55 to 56 °C.
Compound `Cc1ccc(S(=O)(=S)OCC2CC2)cc1` (stereo not drawn) had a melting point of 46 to 48 °C.
In turn, `CCOC(=O)Nc1c(OC)cc(CC(C#N)=CNc2ccccc2)cc1OC` registered a melting point of 150 to 151 °C.
Under `CNC(=S)N(C)c1nccs1` stands 68 to 69 °C; under `O=C1CCC(c2ccncc2)=NN1`, 185 to 187 °C; under `Fc1ccc(Cn2c(NC3CCN(CCNCCc4c[nH]c5ccccc45)CC3)nc3ccccc32)cc1`, 170 °C.
Under `COc1cc2c(c(C(C)C)c1OC)C(=O)N(CSc1nnnn1-c1ccccc1)S2(=O)=O` stands 69 to 71 °C.
`COc1ccc(-c2ccc3nc(N)c4ncn(CC(C)C)c4c3c2)c(OC)c1`: the melting point lay within 223 to 227 °C.
Under `O=C1CCC(N2Cc3c(OCc4ccc(CN5CCN(c6ccccn6)CC5)cc4)cccc3C2=O)C(=O)N1` (stereo not drawn) stands 165 to 167 °C; under `COc1ccc([C@@H]2O[C@@H](CC(=O)O)C(=O)N(CC(C)(C)C)c3ccc(Cl)cc32)c(OC)c1`, 233 to 234 °C; under `CS(=O)(=O)Nc1c(C(=O)c2ccccc2)[nH]c2cc(Cl)ccc12`, 215 to 218 °C.
`COc1cc2[nH]c(=O)n(CC(C)S)c(=O)c2cc1OC` (stereo not drawn) had a melting point of 262 to 264 °C.
`OCc1ccc(-c2ccccc2-c2nnn(C(c3ccccc3)(c3ccccc3)c3ccccc3)n2)cc1` displayed a melting point of 168 to 170 °C.
`O=C(O)c1ncccc1CCc1cccc(F)c1`: the melting point was 118 to 122 °C.
Under `O=C(O)c1cc(-n2c(-c3ccccc3)cc3c2CCCC3)ccc1O` stands 209 to 211 °C; under `CC(C)C(NC(=O)OC(C)(C)C)C(=O)NC(C(=O)OC1CC(n2cc(C=CBr)c(=O)[nH]c2=O)OC1CCl)C(C)C` (stereo not drawn), 114 to 116 °C; under `CC(C)(C)OC(=O)N[C@@H](C(=O)N1CCC[C@H]1C(=O)NCC1CCc2nc(N)ncc2C1)C(c1ccccc1)c1ccccc1` (stereo partly drawn), 127 to 130 °C.
`CCCCCCCCCCOc1cc(OCCCOc2ccc(OCc3ccccc3)cc2)cc(C(=O)O)c1` returned a melting point of 107 to 109 °C.
Under `CCON=C(CC)C1=C(O)CC(c2ccc(Oc3ncc(C(F)(F)F)cc3F)cc2)CC1=O` (stereo not drawn) stands 82 to 82.5 °C; under `Oc1cccc(N2CCCC2)n1`, 154 to 158 °C; under `NN(c1ccccc1)c1cc(Cl)nc(Cl)n1`, 114 to 116 °C.
The compound `CSc1nc(-c2cc(C(C)(C)C)c(O)c(C(C)(C)C)c2)c[nH]1` returned a melting point of 249 to 251 °C.
As to `C[C@]12C[C@H](c3ccc(OCCCCCS(=O)CCCC(F)(F)C(F)(F)F)cc3)[C@@H]3c4ccc(OC5CCCC5)cc4CC[C@H]3[C@@H]1CC[C@@H]2O` (stereo partly drawn), the melting point amounted to 189 °C.
Under `CN(C)c1nc2c(N)cc(Br)cc2n1C` stands 137 °C; under `CCN1CCCC1Cc1cccc(NC(N)=O)c1` (stereo not drawn), 114 to 116 °C; under `CSc1nnc(-c2ccc(F)cc2)c(-c2ccc(F)cc2)n1`, 132 to 135 °C.
